Test results: patent US6861428B2, “Water-soluble phenylpyridazine compounds and compositions containing the same” (Kowa Co., Ltd., priority 2001, dated 2005)

Structure (SMILES)	melting point
CC(C)Cn1nc(-c2ccc(F)c(F)c2)cc(CN2CCNCC2)c1=O.Cl.Cl	182.5 to 186 °C
CC(C)Cn1nc(-c2ccc(F)c(F)c2)cc(CN2CCN(C)CC2)c1=O.Cl.Cl	242.5 to 243.4 °C
Cc1cc(-c2cc(CN3CCNCC3)c(=O)n(Cc3ccccc3)n2)ccc1F.Cl.Cl	162.7 to 180.7 °C (dec.)
Cc1cc(-c2cc(CN3CCN(C)CC3)c(=O)n(Cc3ccccc3)n2)ccc1F.Cl.Cl	240 to 242.5 °C (dec.)
Cc1cc(-c2cc(CN(C)C)c(=O)n(Cc3ccccc3)n2)ccc1F.Cl	225.3 to 226 °C
Cc1cc(-c2cc(CN3CCNCC3)c(=O)n(CC=Cc3ccccc3)n2)ccc1F.Cl.Cl	171.1 to 187.1 °C (dec.)
Cc1cc(-c2cc(CN3CCN(C)CC3)c(=O)n(CC=Cc3ccccc3)n2)ccc1F.Cl.Cl	236.1 to 237.1 °C
Cc1cc(-c2cc(CN(C)C)c(=O)n(CC=Cc3ccccc3)n2)ccc1F.Cl	183.6 to 184.5 °C
Cc1cc(-c2cc(CN3CCNCC3)c(=O)n(CC=Cc3ccc(Cl)cc3)n2)ccc1F.Cl.Cl	186.7 to 197 °C (dec.)
Cc1cc(-c2nn(CC=Cc3ccc(Cl)cc3)c(=O)c(N(C)C)c2C)ccc1F.Cl	201.3 to 201.9 °C
CSc1ccc(-c2cc(CN3CCNCC3)c(=O)n(CC(C)C)n2)cc1.Cl.Cl	248.5 to 253.7 °C (dec.)
CN1CCN(Cc2cc(-c3ccc([S+](C)[O-])cc3)nn(CC3CC3)c2=O)CC1.Cl.Cl (stereo not shown)	80 °C (dec.)
Cc1c(-c2ccc([S+](C)[O-])cc2)nn(CC(C)C)c(=O)c1N1CCN(C)CC1.Cl.Cl (stereo not shown)	224.5 to 229.1 °C (dec.)
CC(C)Cn1nc(-c2ccc([S+](C)[O-])cc2)cc(CN(C)C)c1=O.Cl (stereo not shown)	204.2 to 206 °C
CN1CCN(Cc2cc(-c3ccc(S(C)(=O)=O)cc3)nn(CC3CC3)c2=O)CC1.Cl.Cl	209 to 211.4 °C
Cc1c(-c2ccc(S(C)(=O)=O)cc2)nn(CC2CC2)c(=O)c1N(C)C.Cl	239.5 to 240.7 °C
CC(C)Cn1nc(-c2ccc(S(C)(=O)=O)cc2)cc(CN2CCNCC2)c1=O.Cl.Cl	222.4 to 224.2 °C
CC(C)Cn1nc(-c2ccc(S(C)(=O)=O)cc2)cc(CN(C)C)c1=O.Cl	221.4 to 223.3 °C
Cc1ccc(-c2cc(CN3CCNCC3)c(=O)n(CC(C)C)n2)cc1F.Cl.Cl	186.2 to 195 °C (dec.)
Cc1cc(-c2cc(CN3CCN(C)CC3)c(=O)n(Cc3ccc(Cl)cc3)n2)ccc1F.Cl.Cl	246.4 to 249.7 °C (dec.)
Cc1cc(-c2cc(CN3CCN(C)CC3)c(=O)n(Cc3ccccc3Cl)n2)ccc1F.Cl.Cl	191 to 202 °C (dec.)
Cc1cc(-c2cc(CN)c(=O)n(Cc3ccccc3Cl)n2)ccc1F.Cl	201.9 to 206.4 °C
COc1ccc(-c2cc(CN3CCNCC3)c(=O)n(CC(C)C)n2)cc1F.Cl.Cl	163 to 177 °C (dec.)
COc1ccc(-c2cc(CN3CCN(C)CC3)c(=O)n(CC(C)C)n2)cc1F.Cl.Cl	236.9 to 237 °C
COc1ccc(-c2cc(CN(C)C)c(=O)n(CC(C)C)n2)cc1F.Cl	212.4 to 212.8 °C

Structure (SMILES)	melting point
Cc1c(-c2ccccc2)nn(CC(C)C)c(=O)c1N1CCNCC1.Cl.Cl	154.3 to 159.5 °C
Cc1c(-c2ccccc2)nn(CC(C)C)c(=O)c1N1CCN(C)CC1.Cl.Cl	243.8 to 244.3 °C
Cc1ccc(-c2cc(CN3CCN(C)CC3)c(=O)n(CC(C)C)n2)cc1F.Cl.Cl	248.5 to 252 °C (dec.)
CC(C)Cn1nc(-c2ccccc2)cc(CN(C)C)c1=O.Cl	221.7 to 222.3 °C
CC(C)Cn1nc(-c2ccc(C(F)(F)F)cc2)cc(CN2CCNCC2)c1=O.Cl.Cl	210.8 to 212.5 °C
Cc1c(-c2ccc(C(F)(F)F)cc2)nn(CC(C)C)c(=O)c1N1CCN(C)CC1.Cl.Cl	249.9 to 252.8 °C
CC(C)Cn1nc(-c2ccc(C(F)(F)F)cc2)cc(CN(C)C)c1=O.Cl	242.2 to 242.3 °C
CC(C)Cn1nc(-c2ccc(-c3ccccc3)cc2)cc(CN2CCNCC2)c1=O.Cl.Cl	226.8 to 228 °C
CC(C)Cn1nc(-c2ccc(-c3ccccc3)cc2)cc(CN2CCN(C)CC2)c1=O.Cl.Cl	262.2 to 263.6 °C
Cc1c(-c2ccc(-c3ccccc3)cc2)nn(CC(C)C)c(=O)c1N(C)C.Cl	243.9 to 244.1 °C
COc1ccc(-c2cc(CN3CCNCC3)c(=O)n(CC(C)C)n2)cc1Cl.Cl.Cl	203.6 to 204.5 °C
COc1ccc(-c2cc(CN3CCN(C)CC3)c(=O)n(CC(C)C)n2)cc1Cl.Cl.Cl	235.8 to 236.7 °C
COc1ccc(-c2cc(CN(C)C)c(=O)n(CC(C)C)n2)cc1Cl.Cl	213.6 to 214.3 °C
CNCc1cc(-c2ccc(OC)c(F)c2)nn(CC2CC2)c1=O	169.1 to 170.7 °C
COc1ccc(-c2cc(CN3CCNCC3)c(=O)n(CC3CC3)n2)cc1F [Example 20, 2-cyclopropylmethyl-6-(3-fluoro-4-methoxyphenyl)-4-(1-piperazinyl)methyl-2H-pyridazin-3-one]	111.5 to 118 °C
Cc1ccc(-c2cc(CN)c(=O)n(CC(C)C)n2)cc1 [Example 50, 4-aminomethyl-2-isobutyl-6-(4-methylphenyl)-2H-pyridazin-3-one]	74.9 to 77.9 °C
Cc1ccc(-c2nn(CC(C)C)c(=O)c(NC(CO)CO)c2C)cc1 [Example 52, 4-(1,3-dihydroxypropan-2-yl)amino-methyl-2-isobutyl-6-(4-methylphenyl)-2H-pyridazin-3-one]	134.1 to 135.2 °C
CSc1ccc(-c2nn(CC3CC3)c(=O)c(N(C)C)c2C)cc1.Cl [Example 153, 2-cyclopropylmethyl-4-dimethylamino-methyl-6-[4-(methylthio)phenyl]-2H-pyridazin-3-one hydrochloride]	230.2 to 232.3 °C
COc1ccc(-c2cc(CN(C)C)c(=O)n(Cc3ccc(F)cc3)n2)cc1F [Example 190, 4-dimethylaminomethyl-2-(4-fluorobenzyl)-6-(3-fluoro-4-methoxyphenyl)-2H-pyridazin-3-one]	127 to 129 °C
COc1ccc(-c2cc(CN)c(=O)n(Cc3ccc(F)cc3)n2)cc1F [Example 194, 4-aminomethyl-2-(4-fluorobenzyl)-6-(3-fluoro-4-methoxyphenyl)-2H-pyridazin-3-one]	145 to 149 °C
COc1ccc(-c2cc(CN(C)C)c(=O)n(CCCc3ccc(F)cc3)n2)cc1F [Example 197, 4-dimethylaminomethyl-6-(3-fluoro-4-methoxyphenyl)-2-[3-(4-fluorophenyl)propyl]-2H-pyridazin-3-one]	97 to 100 °C
COc1ccc(-c2cc(CN)c(=O)n(CCCc3ccc(F)cc3)n2)cc1F [Example 200, 4-aminomethyl-6-(3-fluoro-4-methoxyphenyl)-2-[3-(4-fluorophenyl)propyl]-2H-pyridazin-3-one]	82 to 84 °C
COc1ccc(-c2cc(CN(C)C)c(=O)n(Cc3ccc(Cl)cc3)n2)cc1F [Example 203, 2-(4-chlorobenzyl)-4-dimethylaminomethyl-6-(3-fluoro-4-methoxyphenyl)-2H-pyridazin-3-one]	95.3 to 96.7 °C
COc1ccc(-c2cc(CN)c(=O)n(Cc3ccc(Cl)cc3)n2)cc1F [Example 205, 4-aminomethyl-2-(4-chlorobenzyl)-6-(3-fluoro-4-methoxyphenyl)-2H-pyridazin-3-one]	128.5 to 131.4 °C
